From ChEMBL document CHEMBL5046278, “Synthesis and Evaluation of Novel Tetrahydronaphthyridine CXCR4 Antagonists with Improved Drug-like Profiles” (J Med Chem, 2022)

Columns and labels:
[1] = molecular target: Voltage-gated inwardly rectifying potassium channel KCNH2 (Homo sapiens, UniProt Q12809); assay: Inhibition of human ERG by [3H]]Astemizole binding assay; format: toxicity
[2] = molecular target: D(2) dopamine receptor (Homo sapiens, UniProt P14416); assay: Inhibition of dopamine D2 receptor (unknown origin)
D(2) dopamine receptor, sequence (P14416 whole entry): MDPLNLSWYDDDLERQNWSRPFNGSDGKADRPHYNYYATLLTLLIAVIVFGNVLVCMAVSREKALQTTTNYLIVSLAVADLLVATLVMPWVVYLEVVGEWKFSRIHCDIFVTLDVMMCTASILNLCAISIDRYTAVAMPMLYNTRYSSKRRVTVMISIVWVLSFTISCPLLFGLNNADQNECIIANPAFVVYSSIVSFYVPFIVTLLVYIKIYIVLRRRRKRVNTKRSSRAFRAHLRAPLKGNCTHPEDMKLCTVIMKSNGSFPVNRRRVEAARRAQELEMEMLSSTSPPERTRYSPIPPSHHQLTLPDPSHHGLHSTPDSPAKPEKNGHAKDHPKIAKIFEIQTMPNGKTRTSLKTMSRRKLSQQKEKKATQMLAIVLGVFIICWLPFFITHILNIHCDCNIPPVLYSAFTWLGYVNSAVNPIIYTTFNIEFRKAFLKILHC

[3] = molecular target: Cytochrome P450 2D6 (Homo sapiens, UniProt P10635); assay: Inhibition of recombinant human CYP2D6 using AMMC as substrate preincubated for 30 mins followed by substrate addition measured after 45 mins by fluorescence based assay; format: ADME
Cytochrome P450 2D6, sequence (P10635 whole entry): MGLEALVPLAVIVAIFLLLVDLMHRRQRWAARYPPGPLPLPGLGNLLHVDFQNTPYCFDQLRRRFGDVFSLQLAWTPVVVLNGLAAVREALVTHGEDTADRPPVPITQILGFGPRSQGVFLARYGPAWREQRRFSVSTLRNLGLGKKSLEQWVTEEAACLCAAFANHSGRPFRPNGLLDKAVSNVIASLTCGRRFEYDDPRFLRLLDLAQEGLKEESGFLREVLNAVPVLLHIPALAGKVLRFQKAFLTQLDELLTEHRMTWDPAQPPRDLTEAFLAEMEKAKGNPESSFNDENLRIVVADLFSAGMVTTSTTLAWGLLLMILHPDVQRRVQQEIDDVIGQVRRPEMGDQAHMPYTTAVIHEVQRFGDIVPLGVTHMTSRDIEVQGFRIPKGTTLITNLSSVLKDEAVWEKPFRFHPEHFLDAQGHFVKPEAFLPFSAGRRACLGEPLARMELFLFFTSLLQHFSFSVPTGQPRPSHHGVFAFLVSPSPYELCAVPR

[4] = molecular target: T1, Alpha-2A adrenergic receptor (Homo sapiens, UniProt P08913); assay: Inhibition of alpha 2A adrenergic receptor (unknown origin)
T1 sequence (P08913 whole entry): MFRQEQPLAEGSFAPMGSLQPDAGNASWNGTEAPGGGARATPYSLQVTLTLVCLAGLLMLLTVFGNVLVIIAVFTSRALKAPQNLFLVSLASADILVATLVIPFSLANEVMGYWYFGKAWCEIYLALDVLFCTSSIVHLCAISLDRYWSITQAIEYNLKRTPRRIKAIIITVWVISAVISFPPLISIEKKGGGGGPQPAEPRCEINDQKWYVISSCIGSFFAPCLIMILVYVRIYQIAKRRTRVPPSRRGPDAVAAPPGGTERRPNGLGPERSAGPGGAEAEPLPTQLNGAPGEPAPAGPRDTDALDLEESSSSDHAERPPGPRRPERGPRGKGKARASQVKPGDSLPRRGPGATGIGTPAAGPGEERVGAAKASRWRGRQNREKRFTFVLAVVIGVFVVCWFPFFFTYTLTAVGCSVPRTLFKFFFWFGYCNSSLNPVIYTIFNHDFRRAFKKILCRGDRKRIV

[5] = molecular target: Kappa-type opioid receptor (Homo sapiens, UniProt P41145); assay: Inhibition of kappa opioid receptor (unknown origin)
Kappa-type opioid receptor, sequence (P41145 whole entry): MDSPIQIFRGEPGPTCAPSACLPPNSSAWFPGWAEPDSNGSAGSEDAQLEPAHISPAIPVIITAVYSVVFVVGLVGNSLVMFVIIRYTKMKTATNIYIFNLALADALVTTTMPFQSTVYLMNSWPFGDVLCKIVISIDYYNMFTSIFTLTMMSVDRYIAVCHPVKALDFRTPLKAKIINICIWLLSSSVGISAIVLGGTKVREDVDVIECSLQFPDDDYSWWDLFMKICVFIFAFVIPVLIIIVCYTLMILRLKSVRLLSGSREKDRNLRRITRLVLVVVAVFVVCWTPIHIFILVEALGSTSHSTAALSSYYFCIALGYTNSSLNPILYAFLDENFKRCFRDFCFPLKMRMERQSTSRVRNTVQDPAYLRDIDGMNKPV

[6] = molecular target: T2, Muscarinic acetylcholine receptor M2 (Homo sapiens, UniProt P08172); assay: Inhibition of M2 mAChR receptor (unknown origin)
T2 sequence (P08172 whole entry): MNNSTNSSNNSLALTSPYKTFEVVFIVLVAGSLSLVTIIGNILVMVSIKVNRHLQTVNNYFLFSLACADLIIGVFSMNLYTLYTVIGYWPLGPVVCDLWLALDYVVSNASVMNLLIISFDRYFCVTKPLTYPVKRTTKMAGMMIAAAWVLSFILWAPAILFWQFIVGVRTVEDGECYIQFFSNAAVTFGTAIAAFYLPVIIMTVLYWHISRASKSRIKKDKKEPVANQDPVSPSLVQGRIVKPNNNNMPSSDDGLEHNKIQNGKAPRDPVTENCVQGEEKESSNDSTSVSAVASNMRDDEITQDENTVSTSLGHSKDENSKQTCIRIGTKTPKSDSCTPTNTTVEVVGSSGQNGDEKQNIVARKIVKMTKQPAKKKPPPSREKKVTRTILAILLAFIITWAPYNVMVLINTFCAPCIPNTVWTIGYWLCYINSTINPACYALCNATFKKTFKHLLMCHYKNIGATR

[7] = Metabolic stability in mouse liver microsomes assessed compound remaining measured after 10 mins in presence of NADPH; format: ADME, Microsome; details: read-out: Stability
[8] = Metabolic stability in human liver microsomes assessed compound remaining measured after 10 mins in presence of NADPH; format: ADME, Microsome; details: read-out: Stability
[9] = Permeability of compound at pH 5.5 incubated for 4 hrs by PAMPA assay; format: ADME; details: read-out: permeability
[10] = Metabolic stability in rat liver microsomes assessed compound remaining measured after 10 mins in presence of NADPH; format: ADME, Microsome; details: read-out: Stability
[11] = Antagonist activity at human CXCR4 receptor expressed in CCRF-CEM cells assessed as inhibition of CXCL12-induced calcium release by calcium flux assay; format: cell-based
[12] = molecular target: Mu-type opioid receptor (Homo sapiens, UniProt P35372); assay: Inhibition of mu opioid receptor (unknown origin)
Mu-type opioid receptor, sequence (P35372 whole entry): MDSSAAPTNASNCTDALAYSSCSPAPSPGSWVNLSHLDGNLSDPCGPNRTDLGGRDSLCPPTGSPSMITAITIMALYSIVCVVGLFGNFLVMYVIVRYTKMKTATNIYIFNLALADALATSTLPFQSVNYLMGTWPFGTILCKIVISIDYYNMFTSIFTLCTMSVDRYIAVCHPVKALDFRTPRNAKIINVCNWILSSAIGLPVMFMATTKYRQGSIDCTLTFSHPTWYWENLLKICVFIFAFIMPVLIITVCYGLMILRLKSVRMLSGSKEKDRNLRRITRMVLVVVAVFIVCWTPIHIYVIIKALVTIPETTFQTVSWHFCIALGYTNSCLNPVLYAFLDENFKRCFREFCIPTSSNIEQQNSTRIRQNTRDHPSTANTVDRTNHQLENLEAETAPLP

[13] = molecular target: T3, Alpha-2C adrenergic receptor (Homo sapiens, UniProt P18825); assay: Inhibition of alpha 2C adrenergic receptor (unknown origin)
T3 sequence (P18825 whole entry): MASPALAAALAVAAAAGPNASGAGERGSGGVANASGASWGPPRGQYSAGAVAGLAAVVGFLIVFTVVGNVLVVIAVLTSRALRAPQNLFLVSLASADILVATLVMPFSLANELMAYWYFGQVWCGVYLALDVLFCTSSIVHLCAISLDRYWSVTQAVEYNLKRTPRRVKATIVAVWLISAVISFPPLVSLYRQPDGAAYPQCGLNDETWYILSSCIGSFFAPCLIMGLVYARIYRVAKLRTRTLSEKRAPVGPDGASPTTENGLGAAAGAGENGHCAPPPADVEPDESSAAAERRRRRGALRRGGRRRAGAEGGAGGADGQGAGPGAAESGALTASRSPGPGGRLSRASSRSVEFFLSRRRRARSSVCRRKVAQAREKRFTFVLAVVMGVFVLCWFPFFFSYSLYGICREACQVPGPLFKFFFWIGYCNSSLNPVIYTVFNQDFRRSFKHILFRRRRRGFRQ

[14] = Permeability of compound at pH 7.4 incubated for 4 hrs by PAMPA assay; format: ADME; details: read-out: permeability
[15] = Antagonist activity at mAChR (unknown origin) expressed in CCRF-CEM cells assessed as inhibition of calcium release by calcium flux assay; format: cell-based; details: Homo sapiens
[16] = molecular target: Neuronal acetylcholine receptor subunit alpha-7 (Homo sapiens, UniProt P36544); assay: Inhibition of alpha7 nicotinic acetylcholine receptor (unknown origin)
Neuronal acetylcholine receptor subunit alpha-7, sequence (P36544 whole entry): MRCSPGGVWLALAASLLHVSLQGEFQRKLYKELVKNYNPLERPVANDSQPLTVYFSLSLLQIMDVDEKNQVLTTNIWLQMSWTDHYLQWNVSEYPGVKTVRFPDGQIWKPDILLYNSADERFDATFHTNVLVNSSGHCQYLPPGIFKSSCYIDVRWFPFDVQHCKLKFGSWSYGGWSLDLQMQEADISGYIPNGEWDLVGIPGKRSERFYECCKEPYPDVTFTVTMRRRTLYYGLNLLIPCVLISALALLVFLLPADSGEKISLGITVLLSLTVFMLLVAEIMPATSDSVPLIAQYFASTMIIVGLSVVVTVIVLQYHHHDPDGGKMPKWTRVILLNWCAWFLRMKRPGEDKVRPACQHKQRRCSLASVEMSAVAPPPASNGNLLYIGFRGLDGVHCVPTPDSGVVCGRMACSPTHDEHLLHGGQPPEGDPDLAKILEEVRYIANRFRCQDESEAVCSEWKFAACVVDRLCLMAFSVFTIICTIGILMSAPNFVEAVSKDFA

Voltage-gated inwardly rectifying potassium channel KCNH2, sequence (Q12809 whole entry): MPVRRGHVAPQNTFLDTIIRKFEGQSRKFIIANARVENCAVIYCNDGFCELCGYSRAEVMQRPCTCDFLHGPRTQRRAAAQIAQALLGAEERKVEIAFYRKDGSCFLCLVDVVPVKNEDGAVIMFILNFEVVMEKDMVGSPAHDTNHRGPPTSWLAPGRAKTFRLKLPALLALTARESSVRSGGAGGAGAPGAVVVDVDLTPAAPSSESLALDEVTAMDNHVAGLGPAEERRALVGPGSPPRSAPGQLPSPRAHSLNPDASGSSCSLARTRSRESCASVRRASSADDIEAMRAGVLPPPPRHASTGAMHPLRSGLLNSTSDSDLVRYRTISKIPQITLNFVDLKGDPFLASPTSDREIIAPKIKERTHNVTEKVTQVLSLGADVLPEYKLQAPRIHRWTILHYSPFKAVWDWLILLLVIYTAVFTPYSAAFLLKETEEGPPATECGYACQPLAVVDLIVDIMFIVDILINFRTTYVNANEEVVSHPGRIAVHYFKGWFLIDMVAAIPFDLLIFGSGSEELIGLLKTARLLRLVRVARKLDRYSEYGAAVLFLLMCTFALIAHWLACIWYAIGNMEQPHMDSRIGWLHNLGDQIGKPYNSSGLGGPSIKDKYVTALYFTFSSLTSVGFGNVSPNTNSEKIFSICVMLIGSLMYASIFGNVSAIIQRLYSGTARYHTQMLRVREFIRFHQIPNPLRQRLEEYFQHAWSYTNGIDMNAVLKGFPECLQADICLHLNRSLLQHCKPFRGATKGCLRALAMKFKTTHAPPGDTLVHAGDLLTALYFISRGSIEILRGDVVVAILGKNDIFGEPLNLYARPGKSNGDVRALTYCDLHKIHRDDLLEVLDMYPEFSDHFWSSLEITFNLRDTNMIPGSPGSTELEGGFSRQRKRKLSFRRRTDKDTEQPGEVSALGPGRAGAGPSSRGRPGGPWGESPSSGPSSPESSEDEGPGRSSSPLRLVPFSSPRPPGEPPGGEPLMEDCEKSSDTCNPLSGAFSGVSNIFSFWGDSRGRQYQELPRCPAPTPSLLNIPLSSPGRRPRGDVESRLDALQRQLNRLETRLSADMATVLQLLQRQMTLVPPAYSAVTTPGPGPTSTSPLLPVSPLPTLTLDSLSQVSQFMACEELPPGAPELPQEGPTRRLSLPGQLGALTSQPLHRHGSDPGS

IC50 [2] | IC50 [3] | IC50 [4] | IC50 [5] | IC50 [6] | remaining at 10 min [7] | remaining at 10 min [8] | Papp at 4 h [9] | remaining at 10 min [10] | IC50 [11] | IC50 [12] | IC50 [13] | Papp at 4 h [14] | IC50 [15] | IC50 [16] | Structure (SMILES) | IC50 [1]
10 µM | 4 µM | 1.3 µM | 4 µM | 30 µM | 69% | 96% | 0.2 ×10⁻⁶ cm/s | 49% | 0.012 µM | > 30 µM | 30 µM | 0.6 ×10⁻⁶ cm/s |  |  | NCCCCN(C[C@H]1Cc2cccnc2CN1)[C@H]1CCCc2cccnc21 | 5.4 µM
 | 10 µM |  |  |  | 1% | 80% | 0.3 ×10⁻⁶ cm/s | 6% | 0.39 µM |  |  | 24 ×10⁻⁶ cm/s | > 17 µM |  | CCN(CC)CCCCN(C[C@H]1Cc2ncccc2CN1)[C@H]1CCCc2cccnc21 | 
 | 2.7 µM |  |  |  | 0% | 100% | 23 ×10⁻⁶ cm/s | 1% | > 33 µM |  |  | 100 ×10⁻⁶ cm/s | < 17 µM |  | CN(C[C@@H]1Cc2ncccc2CN1)[C@H]1CCCc2cccnc21 | 
 | 2.7 µM |  |  |  | 53% | 100% | 2 ×10⁻⁶ cm/s | 78% | 0.11 µM |  |  | 6.9 ×10⁻⁶ cm/s | 26 µM |  | NCc1ccc(CN(C[C@H]2Cc3ncccc3CN2)[C@H]2CCCc3cccnc32)cc1 | 
> 30 µM | > 20 µM | > 30 µM | 4.3 µM | > 30 µM | 35% | 97% | 0.2 ×10⁻⁶ cm/s | 49% | 0.0072 µM | 20 µM | > 30 µM | 0.8 ×10⁻⁶ cm/s | > 17 µM | > 30 µM | c1cnc2c(c1)CN[C@@H](CN(CCCCNC1CCOCC1)[C@H]1CCCc3cccnc31)C2 | > 50 µM
 | 4.4 µM |  |  |  | 25% | 92% |  | 37% | 0.22 µM |  |  | 7.7 ×10⁻⁶ cm/s |  |  | NCCCCN(C[C@@H]1Cc2cccnc2CN1)[C@H]1CCCc2cccnc21 | 
 | 10 µM |  |  |  | 55% | 100% | 0.2 ×10⁻⁶ cm/s | 27% | 0.27 µM |  |  | 24 ×10⁻⁶ cm/s | > 17 µM |  | CN(C)CCCCN(C[C@H]1Cc2ncccc2CN1)[C@H]1CCCc2cccnc21 | 
 | 0.7 µM |  |  |  | 37% | 85% | 0.2 ×10⁻⁶ cm/s | 11% | 0.15 µM |  |  | 1.5 ×10⁻⁶ cm/s | 28 µM |  | NC/C=C/CN(C[C@H]1Cc2ncccc2CN1)[C@H]1CCCc2cccnc21 | 
 | 13 µM |  |  |  | 37% | 85% | 2.8 ×10⁻⁶ cm/s | 11% | 0.026 µM |  |  | 6.8 ×10⁻⁶ cm/s | 0.18 µM |  | NC/C=C\CN(C[C@H]1Cc2ncccc2CN1)[C@H]1CCCc2cccnc21 | 
9.8 µM | > 20 µM |  | 4.8 µM | > 30 µM | 69% | 100% | 1.4 ×10⁻⁶ cm/s | 40% | 0.035 µM | > 30 µM | 2.2 µM | 2.4 ×10⁻⁶ cm/s | > 33 µM | 17 µM | c1cnc2c(c1)CN[C@@H](CN(CCCC1CCNCC1)[C@H]1CCCc3cccnc31)C2 | 9.3 µM
 | 13 µM |  |  |  | 32% | 91% | 0.7 ×10⁻⁶ cm/s | 1% | 0.93 µM |  |  | 0.2 ×10⁻⁶ cm/s | > 17 µM |  | NC(=O)NCCCCN(C[C@H]1Cc2ncccc2CN1)[C@H]1CCCc2cccnc21 | 
 | 9.7 µM |  |  |  | 75% | 98% | 0.2 ×10⁻⁶ cm/s | 55% | 0.55 µM |  |  | 0.7 ×10⁻⁶ cm/s |  |  | NCCCCN(C[C@@H]1Cc2ncccc2CN1)[C@H]1CCCc2cccnc21 | 
 | > 20 µM |  |  |  | 33% | 62% | 6.2 ×10⁻⁶ cm/s | 72% | 3 µM |  |  | 32 ×10⁻⁶ cm/s | > 33 µM |  | c1cnc2c(c1)CN[C@@H](CN(CCCCN(C1COC1)C1COC1)[C@H]1CCCc3cccnc31)C2 | 
 | 2.8 µM |  |  |  | 53% | 95% | 46 ×10⁻⁶ cm/s | 7% | 0.48 µM |  |  | 130 ×10⁻⁶ cm/s | < 17 µM |  | CN(C[C@H]1Cc2ncccc2CN1)[C@H]1CCCc2cccnc21 | 
9.4 µM | 12 µM | 11 µM | 1.1 µM | 8.7 µM | 86% | 100% | 1.7 ×10⁻⁶ cm/s | 64% | 0.011 µM | > 30 µM | 13 µM | 1.4 ×10⁻⁶ cm/s |  | 1.7 µM | NCCCCN(C[C@H]1Cc2ncccc2CN1)[C@H]1CCCc2cccnc21 | 5.8 µM
 | 18 µM |  |  |  | 19% | 93% | 0.6 ×10⁻⁶ cm/s | 1% | 0.43 µM |  |  | 0.2 ×10⁻⁶ cm/s | > 17 µM |  | NC(=O)NC/C=C/CN(C[C@H]1Cc2ncccc2CN1)[C@H]1CCCc2cccnc21 | 
 | 15 µM |  |  |  | 47% | 88% |  | 10% | 0.029 µM |  |  | 5.2 ×10⁻⁶ cm/s | 31 µM |  | FC1(F)CCC(NCCCCN(C[C@H]2Cc3ncccc3CN2)[C@H]2CCCc3cccnc32)CC1 | 
 | 20 µM |  |  |  | 10% | 100% | 0.5 ×10⁻⁶ cm/s | 1% | 0.46 µM |  |  | 0.2 ×10⁻⁶ cm/s | > 17 µM |  | NC(=O)NC/C=C\CN(C[C@H]1Cc2ncccc2CN1)[C@H]1CCCc2cccnc21 | 
 | > 20 µM |  |  |  | 73% | 87% | 0.2 ×10⁻⁶ cm/s | 67% | 0.13 µM |  |  | 0.2 ×10⁻⁶ cm/s |  |  | NCCCCN(C[C@@H]1Cc2nccnc2CN1)[C@H]1CCCc2cccnc21 | 
 | > 20 µM |  |  |  | 77% | 84% | 0.2 ×10⁻⁶ cm/s | 50% | 0.042 µM |  |  | 0.2 ×10⁻⁶ cm/s | < 33 µM |  | NCCCCN(C[C@H]1Cc2nccnc2CN1)[C@H]1CCCc2cccnc21 | 

Structure (SMILES) | IC50 [2] | IC50 [3] | IC50 [4] | IC50 [5] | IC50 [6] | remaining at 10 min [7] | remaining at 10 min [8] | Papp at 4 h [9] | remaining at 10 min [10] | IC50 [11] | IC50 [12] | IC50 [13] | Papp at 4 h [14] | IC50 [15] | IC50 [16] | IC50 [1]
NCCCCN(C[C@H]1Cc2ccccc2CN1)[C@H]1CCCc2cccnc21 | 5.7 µM |  |  | 1.6 µM |  |  |  | 0.6 ×10⁻⁶ cm/s |  |  |  | 23 µM |  | < 30 µM | > 30 µM | 
